Reference: publication PMC5218480 (PLoS ONE, 2017)

System: MV-4-11 cells
Test: Gene expression microarray analysis (Affymetrix PrimeView) and GSEA
Type: cell-based, human
Set-up: RFU PODN (11730768_x_at) / Fold change /veh PODN (11730768_x_at) / RFU LINC00158 (11744669_a_at) / Fold change /veh LINC00158 (11744669_a_at) / RFU DUSP10 (11751237_a_at) / Fold change /veh DUSP10 (11751237_a_at) / RFU ID3 (11757404_x_at) / Fold change /veh ID3 (11757404_x_at) / RFU PLEKHG5 (11737974_s_at) / Fold change /veh PLEKHG5 (11737974_s_at) / RFU LRRC4B (11730491_at) / Fold change /veh LRRC4B (11730491_at) / RFU GIMAP4 (11747438_a_at) / Fold change /veh GIMAP4 (11747438_a_at) / RFU KRT8 (11758183_x_at) / Fold change /veh KRT8 (11758183_x_at) / RFU CNN1 (11734310_a_at) / Fold change /veh CNN1 (11734310_a_at) / RFU VPS37D (11726825_at) / Fold change /veh VPS37D (11726825_at) / RFU C10orf10 (11716522_x_at) / Fold change /veh C10orf10 (11716522_x_at) / RFU KIR2DL2 /// KIR2DL4 /// KIR2DL5A /// KIR2DL5B /// KIR2DS1 /// KIR2DS2 /// KIR2DS3 /// KIR2DS4 /// KIR3DL3 /// KIR3DL3 /// KIR3DS1 (11738374_at) / Fold change /veh KIR2DL2 /// KIR2DL4 /// KIR2DL5A /// KIR2DL5B /// KIR2DS1 /// KIR2DS2 /// KIR2DS3 /// KIR2DS4 /// KIR3DL3 /// KIR3DL3 /// KIR3DS1 (11738374_at) / RFU C1QL1 (11718748_at) / Fold change /veh C1QL1 (11718748_at) / RFU TMPRSS4 (11747572_a_at) / Fold change /veh TMPRSS4 (11747572_a_at) / RFU HAMP (11756126_x_at) / Fold change /veh HAMP (11756126_x_at) / RFU RNFT2 (11725882_a_at) / Fold change /veh RNFT2 (11725882_a_at) / RFU NR4A2 (11747474_a_at) / Fold change /veh NR4A2 (11747474_a_at) / RFU ABCC12 (11746883_a_at) / Fold change /veh ABCC12 (11746883_a_at) / RFU TMEM136 (11760407_x_at) / Fold change /veh TMEM136 (11760407_x_at) / RFU CLDN22 /// WWC2 (11732394_at) / Fold change /veh CLDN22 /// WWC2 (11732394_at) / RFU HLA-DPB1 (11760878_x_at) / Fold change /veh HLA-DPB1 (11760878_x_at) / RFU SPINT1 (11716480_a_at) / Fold change /veh SPINT1 (11716480_a_at) / RFU GAP43 (11754022_s_at) / Fold change /veh GAP43 (11754022_s_at) / RFU A4GNT (11735810_at) / Fold change /veh A4GNT (11735810_at) / RFU PRB3 (11715151_x_at) / Fold change /veh PRB3 (11715151_x_at) / RFU TUBB4B (11761932_at) / Fold change /veh TUBB4B (11761932_at) / RFU CAPN14 (11732068_a_at) / Fold change /veh CAPN14 (11732068_a_at) / RFU TMCC2 (11721928_a_at) / Fold change /veh TMCC2 (11721928_a_at) / RFU IRGQ (11745062_a_at) / Fold change /veh IRGQ (11745062_a_at) / RFU FAM174B (11720279_a_at) / Fold change /veh FAM174B (11720279_a_at) / RFU TMPRSS4 (11748680_a_at) / Fold change /veh TMPRSS4 (11748680_a_at) / RFU FAM212B (11763350_a_at) / Fold change /veh FAM212B (11763350_a_at) / RFU PLEKHG5 (11743358_a_at) / Fold change /veh PLEKHG5 (11743358_a_at) / RFU ZSCAN30 (11745921_a_at) / Fold change /veh ZSCAN30 (11745921_a_at) / RFU CMKLR1 (11741424_a_at) / Fold change /veh CMKLR1 (11741424_a_at) / RFU LOC101060620 /// MAPK8IP1 (11723275_at) / Fold change /veh LOC101060620 /// MAPK8IP1 (11723275_at) / RFU SPTSSB (11747773_x_at) / Fold change /veh SPTSSB (11747773_x_at) / RFU PRSS12 (11739890_at) / Fold change /veh PRSS12 (11739890_at) / RFU BIN1 (11741810_x_at) / Fold change /veh BIN1 (11741810_x_at) / RFU WNT11 (11732464_a_at) / Fold change /veh WNT11 (11732464_a_at) / RFU C10orf10 (11716521_a_at) / Fold change /veh C10orf10 (11716521_a_at) / RFU C5orf56 (11738089_at) / Fold change /veh C5orf56 (11738089_at) / RFU CYB561 (11721691_x_at) / Fold change /veh CYB561 (11721691_x_at) / RFU ANKRD19P (11752326_a_at) / Fold change /veh ANKRD19P (11752326_a_at) / RFU OR2T12 /// OR2T33 /// OR2T8 (11738714_s_at) / Fold change /veh OR2T12 /// OR2T33 /// OR2T8 (11738714_s_at) / RFU VCAN (11748164_a_at) / Fold change /veh VCAN (11748164_a_at) / RFU JSRP1 (11732532_at) / Fold change /veh JSRP1 (11732532_at) / RFU KRTAP10-11 (11738290_x_at) / Fold change /veh KRTAP10-11 (11738290_x_at) / RFU MYO3A (11730013_a_at) / Fold change /veh MYO3A (11730013_a_at) / RFU EBF3 (11725865_a_at) / Fold change /veh EBF3 (11725865_a_at) / RFU CAMK2N1 (11719241_x_at) / Fold change /veh CAMK2N1 (11719241_x_at) / RFU C5orf56 (11738088_a_at) / Fold change /veh C5orf56 (11738088_a_at) / RFU OLFML3 (11715873_a_at) / Fold change /veh OLFML3 (11715873_a_at) / RFU LOC100653217 /// NTM (11731650_a_at) / Fold change /veh LOC100653217 /// NTM (11731650_a_at) / RFU MAPK11 (11762145_a_at) / Fold change /veh MAPK11 (11762145_a_at) / RFU FIZ1 (11724087_x_at) / Fold change /veh FIZ1 (11724087_x_at) / RFU OASL (11726364_x_at) / Fold change /veh OASL (11726364_x_at) / RFU SOX15 (11748057_x_at) / Fold change /veh SOX15 (11748057_x_at) / RFU CD79A (11719716_a_at) / Fold change /veh CD79A (11719716_a_at) / RFU HIST1H1D (11736915_at) / Fold change /veh HIST1H1D (11736915_at) / RFU CASKIN2 (11723855_a_at) / Fold change /veh CASKIN2 (11723855_a_at) / RFU LOC730098 (11760151_x_at) / Fold change /veh LOC730098 (11760151_x_at) / RFU OR4N2 (11742367_at) / Fold change /veh OR4N2 (11742367_at) / RFU PRRT2 (11749266_a_at) / Fold change /veh PRRT2 (11749266_a_at) / RFU SNX32 (11753110_a_at) / Fold change /veh SNX32 (11753110_a_at) / RFU CDHR5 (11726645_a_at) / Fold change /veh CDHR5 (11726645_a_at) / RFU RCAN1 (11760418_a_at) / Fold change /veh RCAN1 (11760418_a_at) / RFU FAM167A (11723789_a_at) / Fold change /veh FAM167A (11723789_a_at) / RFU FAM26E (11764081_at) / Fold change /veh FAM26E (11764081_at) / RFU ISYNA1 (11749810_s_at) / Fold change /veh ISYNA1 (11749810_s_at) / RFU ACY1 (11761880_at) / Fold change /veh ACY1 (11761880_at) / RFU 11764098_at / Fold change /veh 11764098_at / RFU SAMD14 (11745864_x_at) / Fold change /veh SAMD14 (11745864_x_at) / RFU NPB (11741838_a_at) / Fold change /veh NPB (11741838_a_at) / RFU TMPRSS6 (11731388_a_at) / Fold change /veh TMPRSS6 (11731388_a_at) / RFU KRTAP10-2 (11738614_at) / Fold change /veh KRTAP10-2 (11738614_at) / RFU ARHGAP8 /// PRR5-ARHGAP8 (11727945_x_at) / Fold change /veh ARHGAP8 /// PRR5-ARHGAP8 (11727945_x_at) / RFU KRTAP5-7 /// NADSYN1 (11734609_at) / Fold change /veh KRTAP5-7 /// NADSYN1 (11734609_at) / RFU RASL12 (11751679_a_at) / Fold change /veh RASL12 (11751679_a_at) / RFU CDKN2B (11736163_a_at) / Fold change /veh CDKN2B (11736163_a_at) / RFU PRF1 (11729649_at) / Fold change /veh PRF1 (11729649_at) / RFU, ZNF638 /// ZNF638-IT1 / Fold change vs veh, ZNF638 /// ZNF638-IT1 / RFU, PANK3 / Fold change vs veh, PANK3 / RFU, SH3YL1 / Fold change vs veh, SH3YL1 / RFU, ZEB2 / Fold change vs veh, ZEB2 / RFU, NRIP1 / Fold change vs veh, NRIP1 / RFU, PTTG1IP / Fold change vs veh, PTTG1IP / RFU, CAPN2 / Fold change vs veh, CAPN2 / RFU, MED14 / Fold change vs veh, MED14 / RFU, SNORA58 / Fold change vs veh, SNORA58 / RFU, C1orf63 / Fold change vs veh, C1orf63 / RFU, LRRFIP1 / Fold change vs veh, LRRFIP1 / RFU, NDUFAF7 / Fold change vs veh, NDUFAF7 / RFU, SLC12A2 / Fold change vs veh, SLC12A2 / RFU, IBTK / Fold change vs veh, IBTK / RFU, ESF1 / Fold change vs veh, ESF1 / Fold change vs veh, TMEM50B / RFU, TAOK1 / Fold change vs veh, TAOK1 / RFU, ACBD3 / Fold change vs veh, ACBD3 / RFU, TMA16 / Fold change vs veh, TMA16 / RFU, RWDD3 / Fold change vs veh, RWDD3 / RFU, BCAT1 / Fold change vs veh, BCAT1 / RFU, EDEM3 / Fold change vs veh, EDEM3 / RFU, TMEM33 / Fold change vs veh, TMEM33 / RFU, WDR75 / Fold change vs veh, WDR75 / RFU, AHCTF1 / Fold change vs veh, AHCTF1 / RFU, TFRC / Fold change vs veh, TFRC / RFU, ZDHHC17 / Fold change vs veh, ZDHHC17 / RFU, NOM1 / Fold change vs veh, NOM1 / RFU, ARL8B / Fold change vs veh, ARL8B / RFU, ZBTB11 / Fold change vs veh, ZBTB11 / RFU, TAMM41 / Fold change vs veh, TAMM41 / RFU, KIAA1704 /// LOC100996395 / Fold change vs veh, KIAA1704 /// LOC100996395 / RFU, ING1 / Fold change vs veh, ING1 / RFU, TRMT61B / Fold change vs veh, TRMT61B / RFU, FUBP3 / Fold change vs veh, FUBP3 / RFU, TP53 / Fold change vs veh, TP53 / RFU, TNKS2 / Fold change vs veh, TNKS2 / RFU, ZFP14 / Fold change vs veh, ZFP14 / RFU, ACTR2 / Fold change vs veh, ACTR2 / RFU, PPP3R1 / Fold change vs veh, PPP3R1 / RFU, PIK3R1 / Fold change vs veh, PIK3R1 / RFU, HNRNPA1 / Fold change vs veh, HNRNPA1 / RFU, RNF170 / Fold change vs veh, RNF170 / RFU, ZNF28 / Fold change vs veh, ZNF28 / RFU, RNGTT / Fold change vs veh, RNGTT / RFU, OGT / Fold change vs veh, OGT / RFU, BRD1 / Fold change vs veh, BRD1 / RFU, MARS / Fold change vs veh, MARS / RFU, ZNF655 / Fold change vs veh, ZNF655 / RFU, FAHD1 / Fold change vs veh, FAHD1 / RFU, BDP1 / Fold change vs veh, BDP1 / RFU, LRRCC1 / Fold change vs veh, LRRCC1 / RFU, ARID1A / Fold change vs veh, ARID1A / RFU, ZNF146 / Fold change vs veh, ZNF146 / RFU, ZNF330 / Fold change vs veh, ZNF330 / RFU, GPN3 / Fold change vs veh, GPN3 / RFU, C9orf123 / Fold change vs veh, C9orf123 / RFU, N4BP2L2 / Fold change vs veh, N4BP2L2 / RFU, ARFIP1 / Fold change vs veh, ARFIP1 / RFU, FAM179B / Fold change vs veh, FAM179B / RFU, BCL10 / Fold change vs veh, BCL10 / RFU, UHRF1BP1L / Fold change vs veh, UHRF1BP1L / RFU, BET1 / Fold change vs veh, BET1 / RFU, CNOT2 / Fold change vs veh, CNOT2 / RFU, ZNF268 / Fold change vs veh, ZNF268 / Fold change vs veh, ZNF507 / RFU, DGCR2 / Fold change vs veh, DGCR2 / RFU, WDSUB1 / Fold change vs veh, WDSUB1 / Fold change vs veh, HSP90B1 /// MIR3652 / RFU, ADSS / Fold change vs veh, ADSS / RFU, GK / Fold change vs veh, GK / RFU, ZNF148 / Fold change vs veh, ZNF148 / RFU, TAF9 / Fold change vs veh, TAF9 / RFU, SLC1A5 / Fold change vs veh, SLC1A5 / RFU, SLMO2 / Fold change vs veh, SLMO2 / RFU, ABCC4 / Fold change vs veh, ABCC4 / RFU, LOC101060439 /// RAP1B / Fold change vs veh, LOC101060439 /// RAP1B / RFU, RFX7 / Fold change vs veh, RFX7 / RFU, GTPBP10 / Fold change vs veh, GTPBP10 / RFU, CNEP1R1 / Fold change vs veh, CNEP1R1 / RFU, BIVM-ERCC5 /// ERCC5 / Fold change vs veh, BIVM-ERCC5 /// ERCC5 / RFU, ILF3 / Fold change vs veh, ILF3 / RFU 11762660_at / Fold change /veh 11762660_at / RFU VCAN (11757783_s_at) / Fold change /veh VCAN (11757783_s_at) / RFU DDX43 (11728927_at) / Fold change /veh DDX43 (11728927_at) / RFU KRT8 (11758188_x_at) / Fold change /veh KRT8 (11758188_x_at) / RFU NKD1 (11759106_at) / Fold change /veh NKD1 (11759106_at) / RFU SRD5A1 (11742802_a_at) / Fold change /veh SRD5A1 (11742802_a_at) / RFU TPSAB1 /// TPSB2 (11721975_s_at) / Fold change /veh TPSAB1 /// TPSB2 (11721975_s_at) / RFU GSTM3 (11746129_a_at) / Fold change /veh GSTM3 (11746129_a_at) / RFU IL23R (11737362_x_at) / Fold change /veh IL23R (11737362_x_at) / RFU TMEM51 (11727254_a_at) / Fold change /veh TMEM51 (11727254_a_at) / RFU PIWIL2 (11732686_x_at) / Fold change /veh PIWIL2 (11732686_x_at) / RFU ORM1 (11744905_x_at) / Fold change /veh ORM1 (11744905_x_at) / RFU CCDC152 (11743942_at) / Fold change /veh CCDC152 (11743942_at) / RFU ECM1 (11717891_a_at) / Fold change /veh ECM1 (11717891_a_at) / RFU IL23R (11748794_a_at) / Fold change /veh IL23R (11748794_a_at) / RFU TNFAIP8L3 (11732012_x_at) / Fold change /veh TNFAIP8L3 (11732012_x_at) / RFU MBOAT4 (11741988_at) / Fold change /veh MBOAT4 (11741988_at) / RFU 11764193_at / Fold change /veh 11764193_at / RFU TMEM53 (11763286_at) / Fold change /veh TMEM53 (11763286_at) / RFU MAGEB2 (11727129_at) / Fold change /veh MAGEB2 (11727129_at) / RFU TMEM200A (11744735_a_at) / Fold change /veh TMEM200A (11744735_a_at) / RFU CCDC152 (11751479_a_at) / Fold change /veh CCDC152 (11751479_a_at) / RFU FAM211A (11726209_a_at) / Fold change /veh FAM211A (11726209_a_at) / RFU RGS16 (11746705_a_at) / Fold change /veh RGS16 (11746705_a_at) / RFU VCAN (11755009_s_at) / Fold change /veh VCAN (11755009_s_at) / RFU RHOB (11743442_s_at) / Fold change /veh RHOB (11743442_s_at) / RFU RGS16 (11720943_a_at) / Fold change /veh RGS16 (11720943_a_at) / RFU RGS16 (11720944_at) / Fold change /veh RGS16 (11720944_at) / RFU, VPS4B / Fold change vs veh, VPS4B / RFU, CREB1 / Fold change vs veh, CREB1 / RFU, DNAJC13 / Fold change vs veh, DNAJC13 / RFU, GNAQ / Fold change vs veh, GNAQ / RFU, CDK5R1 / Fold change vs veh, CDK5R1 / RFU, ZRANB3 / Fold change vs veh, ZRANB3 / RFU, CUL4A / Fold change vs veh, CUL4A / RFU, CCNY / Fold change vs veh, CCNY / RFU, UFL1 / Fold change vs veh, UFL1 / RFU, COG3 / Fold change vs veh, COG3 / RFU, DIAPH2 / Fold change vs veh, DIAPH2 / RFU, SKA2 / Fold change vs veh, SKA2 / RFU, AFF3 / Fold change vs veh, AFF3 / RFU, LMF1 / Fold change vs veh, LMF1 / RFU, IPO11 / Fold change vs veh, IPO11 / RFU, DFFB / Fold change vs veh, DFFB / RFU, FOXP1 / Fold change vs veh, FOXP1 / RFU, CARD8 / Fold change vs veh, CARD8 / RFU, STRN3 / Fold change vs veh, STRN3 / RFU, ADK / Fold change vs veh, ADK / RFU, RASSF2 / Fold change vs veh, RASSF2 / RFU, WIPF1 / Fold change vs veh, WIPF1 / RFU, LARP1B / Fold change vs veh, LARP1B / RFU, RASA1 / Fold change vs veh, RASA1 / RFU, RB1 / Fold change vs veh, RB1 / RFU, PPFIA1 / Fold change vs veh, PPFIA1 / RFU, MAT2A / Fold change vs veh, MAT2A / RFU, CCT5 / Fold change vs veh, CCT5 / RFU, WDR92 / Fold change vs veh, WDR92 / RFU, CUX1 / Fold change vs veh, CUX1 / RFU, TTC7A / Fold change vs veh, TTC7A / RFU, TMEM135 / Fold change vs veh, TMEM135 / RFU, DEPTOR / Fold change vs veh, DEPTOR / RFU, CPM / Fold change vs veh, CPM / RFU, DNAJB6 / Fold change vs veh, DNAJB6 / RFU, CACNA2D3 / Fold change vs veh, CACNA2D3 / RFU, DTX4 / Fold change vs veh, DTX4 / RFU, TFCP2 / Fold change vs veh, TFCP2 / RFU, GMCL1 /// GMCL1P1 / Fold change vs veh, GMCL1 /// GMCL1P1 / RFU, AEBP2 / Fold change vs veh, AEBP2 / RFU, SNHG1 /// SNORD22 /// SNORD25 /// SNORD26 /// SNORD27 /// SNORD28 /// SNORD29 /// SNORD31 / Fold change vs veh, SNHG1 /// SNORD22 /// SNORD25 /// SNORD26 /// SNORD27 /// SNORD28 /// SNORD29 /// SNORD31 / Fold change (Aza/veh), C12orf56 (ProbeSet 11735607_a_at) / Fold change (ACY-1035/veh), C12orf56 (ProbeSet 11735607_a_at) / Fold change (Aza/veh), FGFR1OP (ProbeSet 11751329_s_at) / Fold change (ACY-1035/veh), FGFR1OP (ProbeSet 11751329_s_at) / Fold change (Aza/veh), VPS36 (ProbeSet 11739960_a_at) / Fold change (ACY-1035/veh), VPS36 (ProbeSet 11739960_a_at) / RFU SYPL1 (11715823_x_at) / Fold change /veh SYPL1 (11715823_x_at) / RFU IGFBP7 (11715501_s_at) / Fold change /veh IGFBP7 (11715501_s_at) / RFU REEP3 (11722064_at) / Fold change /veh REEP3 (11722064_at) / RFU IGLL1 (11728026_x_at) / Fold change /veh IGLL1 (11728026_x_at): dose or concentration left out as unconfirmed
Conditions: ProbeSet 11755436_x_at; LIST B

Nc1ccc(-c2cccs2)cc1NC(=O)c1ccc2c(c1)cc(C1CC1)n2CCN1CCOCC1 [ACY-1035]
Fold change vs veh, ARID1A: 0.98
